Test results from PMC5290327, “SC83288 is a clinical development candidate for the treatment of severe malaria” (Nature Communications, 2017).

Assays:
Experiment in all cases: KINOMEscan
Assay type in all cases: binding
Conditions in all cases: read-out: Remaining enzyme activity
ABL1(T315I) = target: T1, ABL1(T315I) (Homo sapiens, UniProt P00519, T315I)
T1 construct: purchased Ambit (DiscoverX) KINOMEscan; Cerep
Summary of the method: (§1)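 Immobilized ligand beads, biotin-blocked and washed in SeaBlock buffer with BSA, Tween 20 and DTT, are incubated with DNA-tagged kinase and 10 μM SC81458. Compound occupying the active site lowers bead-bound kinase, which is quantified by qPCR of the tag.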

BRSK2 = target: T2, BRSK2 (Homo sapiens, UniProt Q8IWQ3)
T2 construct: purchased Ambit (DiscoverX) KINOMEscan; Cerep
Summary of the method: as §1

CAMK2a = target: T3, CAMK2a (Homo sapiens, UniProt Q9UQM7)
T3 construct: purchased Ambit (DiscoverX) KINOMEscan; Cerep
Summary of the method: as §1

CAMK2g = target: T4, CAMK2g (Homo sapiens, UniProt Q13555)
T4 construct: purchased Ambit (DiscoverX) KINOMEscan; Cerep
Summary of the method: as §1

CAMK4 = target: T5, CAMK4 (Homo sapiens, UniProt Q16566)
T5 construct: purchased Ambit (DiscoverX) KINOMEscan; Cerep
Summary of the method: as §1

CDK11 = target: T6, CDK11 (Homo sapiens, UniProt Q9BWU1)
T6 construct: purchased Ambit (DiscoverX) KINOMEscan; Cerep
Summary of the method: as §1

CHEK1 = target: T7, CHEK1 (Homo sapiens, UniProt O14757)
T7 construct: purchased Ambit (DiscoverX) KINOMEscan; Cerep
Summary of the method: as §1

CIT = target: T8, CIT (Homo sapiens, UniProt O14578)
T8 construct: purchased Ambit (DiscoverX) KINOMEscan; Cerep
Summary of the method: as §1

DRAK2 = target: T9, DRAK2 (Homo sapiens, UniProt O94768)
T9 construct: purchased Ambit (DiscoverX) KINOMEscan; Cerep
Summary of the method: as §1

[1] = target: T10, EGFR(L747-E749del, A750P) (Homo sapiens, UniProt P00533, A750P/DEL747-749)
T10 construct: purchased Ambit (DiscoverX) KINOMEscan; Cerep
Summary of the method: as §1

[2] = target: T11, EGFR(L747-E752del, P753S) (Homo sapiens, UniProt P00533, DEL747-752/P753S)
T11 construct: purchased Ambit (DiscoverX) KINOMEscan; Cerep
Summary of the method: as §1

FLT3 = target: T12, FLT3 (Homo sapiens, UniProt P36888)
T12 construct: purchased Ambit (DiscoverX) KINOMEscan; Cerep
Summary of the method: as §1

HCK = target: T13, HCK (Homo sapiens, UniProt P08631)
T13 construct: purchased Ambit (DiscoverX) KINOMEscan; Cerep
Summary of the method: as §1

HIPK1 = target: T14, HIPK1 (Homo sapiens, UniProt Q86Z02)
T14 construct: purchased Ambit (DiscoverX) KINOMEscan; Cerep
Summary of the method: as §1

ITK = target: T15, ITK (Homo sapiens, UniProt Q08881)
T15 construct: purchased Ambit (DiscoverX) KINOMEscan; Cerep
Summary of the method: as §1

KIT(L576P) = target: T16, KIT(L576P) (Homo sapiens, UniProt P10721, L576P)
T16 construct: purchased Ambit (DiscoverX) KINOMEscan; Cerep
Summary of the method: as §1

MAP3K4 = target: T17, MAP3K4 (Homo sapiens, UniProt Q9Y6R4)
T17 construct: purchased Ambit (DiscoverX) KINOMEscan; Cerep
Summary of the method: as §1

MET = target: T18, MET (Homo sapiens, UniProt P08581)
T18 construct: purchased Ambit (DiscoverX) KINOMEscan; Cerep
Summary of the method: as §1

MLK3 = target: T19, MLK3 (Homo sapiens, UniProt Q16584)
T19 construct: purchased Ambit (DiscoverX) KINOMEscan; Cerep
Summary of the method: as §1

MYLK = target: T20, MYLK (Homo sapiens, UniProt Q15746)
T20 construct: purchased Ambit (DiscoverX) KINOMEscan; Cerep
Summary of the method: as §1

PAK4 = target: T21, PAK4 (Homo sapiens, UniProt O96013)
T21 construct: purchased Ambit (DiscoverX) KINOMEscan; Cerep
Summary of the method: as §1

PDGFRb = target: T22, PDGFRb (Homo sapiens, UniProt P09619)
T22 construct: purchased Ambit (DiscoverX) KINOMEscan; Cerep
Summary of the method: as §1

PIK3CA(M1043I) = target: T23, PIK3CA(M1043I) (Homo sapiens, UniProt P42336, M1043I)
T23 construct: purchased Ambit (DiscoverX) KINOMEscan; Cerep
Summary of the method: as §1

PKAC-beta = target: T24, PKAC-beta (Homo sapiens, UniProt P22694)
T24 construct: purchased Ambit (DiscoverX) KINOMEscan; Cerep
Summary of the method: as §1

PRKD2 = target: T25, PRKD2 (Homo sapiens, UniProt Q9BZL6)
T25 construct: purchased Ambit (DiscoverX) KINOMEscan; Cerep
Summary of the method: as §1

PRKG2 = target: T26, PRKG2 (Homo sapiens, UniProt Q13237)
T26 construct: purchased Ambit (DiscoverX) KINOMEscan; Cerep
Summary of the method: as §1

PYK2 = target: T27, PYK2 (Homo sapiens, UniProt Q14289)
T27 construct: purchased Ambit (DiscoverX) KINOMEscan; Cerep
Summary of the method: as §1

[3] = target: T28, RPS6KA4(Kin.Dom.2-C-term) (Homo sapiens, UniProt O75676)
T28 construct: RPS6KA4(Kin.Dom.2-C-term); purchased Ambit (DiscoverX) KINOMEscan; Cerep
Summary of the method: as §1

SLK = target: T29, SLK (Homo sapiens, UniProt Q9H2G2)
T29 construct: purchased Ambit (DiscoverX) KINOMEscan; Cerep
Summary of the method: as §1

TBK1 = target: T30, TBK1 (Homo sapiens, UniProt Q9UHD2)
T30 construct: purchased Ambit (DiscoverX) KINOMEscan; Cerep
Summary of the method: as §1

TEC = target: T31, TEC (Homo sapiens, UniProt P42680)
T31 construct: purchased Ambit (DiscoverX) KINOMEscan; Cerep
Summary of the method: as §1

TGFBR2 = target: T32, TGFBR2 (Homo sapiens, UniProt P37173)
T32 construct: purchased Ambit (DiscoverX) KINOMEscan; Cerep
Summary of the method: as §1

TSSK1B = target: T33, TSSK1B (Homo sapiens, UniProt Q9BXA7)
T33 construct: purchased Ambit (DiscoverX) KINOMEscan; Cerep
Summary of the method: as §1

T9 sequence (O94768 whole entry): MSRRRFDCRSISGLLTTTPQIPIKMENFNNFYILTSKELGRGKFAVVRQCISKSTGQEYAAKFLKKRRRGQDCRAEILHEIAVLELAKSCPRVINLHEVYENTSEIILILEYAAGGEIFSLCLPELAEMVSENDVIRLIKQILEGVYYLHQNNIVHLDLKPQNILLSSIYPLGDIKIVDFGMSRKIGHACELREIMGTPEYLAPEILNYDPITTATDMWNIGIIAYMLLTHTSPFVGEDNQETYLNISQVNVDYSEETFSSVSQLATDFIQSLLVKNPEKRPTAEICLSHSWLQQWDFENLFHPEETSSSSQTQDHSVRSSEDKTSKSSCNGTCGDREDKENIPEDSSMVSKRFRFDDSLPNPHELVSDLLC
T26 sequence (Q13237 whole entry): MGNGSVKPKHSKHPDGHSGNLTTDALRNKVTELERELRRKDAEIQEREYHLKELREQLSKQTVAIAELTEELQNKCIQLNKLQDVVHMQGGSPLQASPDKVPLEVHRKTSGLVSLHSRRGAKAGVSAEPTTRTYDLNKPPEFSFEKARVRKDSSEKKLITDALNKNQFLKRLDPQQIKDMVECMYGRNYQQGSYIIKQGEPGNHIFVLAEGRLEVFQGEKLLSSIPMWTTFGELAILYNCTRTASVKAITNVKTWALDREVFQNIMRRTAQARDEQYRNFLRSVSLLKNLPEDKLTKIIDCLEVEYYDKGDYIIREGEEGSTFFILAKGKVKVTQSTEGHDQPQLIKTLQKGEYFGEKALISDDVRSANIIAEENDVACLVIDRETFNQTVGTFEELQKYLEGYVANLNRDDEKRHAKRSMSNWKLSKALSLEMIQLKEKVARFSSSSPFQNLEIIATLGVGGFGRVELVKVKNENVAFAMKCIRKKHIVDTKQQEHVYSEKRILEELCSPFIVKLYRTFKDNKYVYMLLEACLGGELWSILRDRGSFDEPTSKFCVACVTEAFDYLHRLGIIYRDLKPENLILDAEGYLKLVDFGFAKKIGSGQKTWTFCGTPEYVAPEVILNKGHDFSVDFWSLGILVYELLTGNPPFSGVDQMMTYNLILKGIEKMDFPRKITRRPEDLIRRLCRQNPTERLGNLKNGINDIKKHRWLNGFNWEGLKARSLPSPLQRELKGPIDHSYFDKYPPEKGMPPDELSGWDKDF
T32 sequence (P37173 23-567): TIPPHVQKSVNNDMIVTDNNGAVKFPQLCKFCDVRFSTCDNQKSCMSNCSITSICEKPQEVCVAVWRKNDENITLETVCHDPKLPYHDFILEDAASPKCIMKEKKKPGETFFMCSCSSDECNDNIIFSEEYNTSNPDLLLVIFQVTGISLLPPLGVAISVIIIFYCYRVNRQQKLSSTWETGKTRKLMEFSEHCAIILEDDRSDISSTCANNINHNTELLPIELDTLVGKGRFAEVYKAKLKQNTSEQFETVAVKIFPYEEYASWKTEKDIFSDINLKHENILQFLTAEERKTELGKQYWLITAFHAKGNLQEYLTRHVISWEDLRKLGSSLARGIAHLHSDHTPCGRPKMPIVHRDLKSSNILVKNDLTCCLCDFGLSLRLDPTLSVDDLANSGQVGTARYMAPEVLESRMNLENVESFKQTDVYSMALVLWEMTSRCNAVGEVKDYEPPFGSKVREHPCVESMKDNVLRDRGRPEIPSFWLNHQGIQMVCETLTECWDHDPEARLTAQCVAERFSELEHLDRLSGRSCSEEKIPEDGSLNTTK
T28 sequence (O75676 411-674 limits assumed): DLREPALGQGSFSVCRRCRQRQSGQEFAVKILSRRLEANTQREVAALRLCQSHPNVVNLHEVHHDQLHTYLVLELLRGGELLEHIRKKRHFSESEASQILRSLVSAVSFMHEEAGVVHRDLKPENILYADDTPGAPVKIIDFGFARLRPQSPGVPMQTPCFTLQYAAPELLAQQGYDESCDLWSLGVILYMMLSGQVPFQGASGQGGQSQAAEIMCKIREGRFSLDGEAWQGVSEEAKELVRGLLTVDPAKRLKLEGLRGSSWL
T11 sequence (P00533 with tags, fused parts or gaps DEL747-752/P753S limits assumed): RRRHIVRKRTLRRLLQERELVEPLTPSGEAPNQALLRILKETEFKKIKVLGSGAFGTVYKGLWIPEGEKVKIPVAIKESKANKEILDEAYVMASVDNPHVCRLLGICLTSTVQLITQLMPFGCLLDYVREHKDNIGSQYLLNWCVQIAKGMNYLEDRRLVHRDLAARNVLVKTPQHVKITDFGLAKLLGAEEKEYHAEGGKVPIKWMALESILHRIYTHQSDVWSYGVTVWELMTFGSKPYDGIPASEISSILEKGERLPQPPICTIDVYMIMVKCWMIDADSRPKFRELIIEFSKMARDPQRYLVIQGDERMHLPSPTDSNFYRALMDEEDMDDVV
T3 sequence (Q9UQM7 whole entry): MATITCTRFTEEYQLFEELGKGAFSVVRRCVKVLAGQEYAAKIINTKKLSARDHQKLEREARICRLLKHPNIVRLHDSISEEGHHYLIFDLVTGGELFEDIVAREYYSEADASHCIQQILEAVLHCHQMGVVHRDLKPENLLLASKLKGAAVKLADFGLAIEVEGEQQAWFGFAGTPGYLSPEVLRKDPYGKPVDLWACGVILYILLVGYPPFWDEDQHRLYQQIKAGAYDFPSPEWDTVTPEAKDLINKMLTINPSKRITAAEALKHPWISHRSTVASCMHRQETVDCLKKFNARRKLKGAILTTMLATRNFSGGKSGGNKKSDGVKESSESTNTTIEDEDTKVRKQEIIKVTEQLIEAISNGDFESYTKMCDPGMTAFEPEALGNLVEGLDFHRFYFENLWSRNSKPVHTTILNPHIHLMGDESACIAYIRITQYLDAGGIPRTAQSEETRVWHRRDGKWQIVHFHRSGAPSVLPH
T31 sequence (P42680 whole entry): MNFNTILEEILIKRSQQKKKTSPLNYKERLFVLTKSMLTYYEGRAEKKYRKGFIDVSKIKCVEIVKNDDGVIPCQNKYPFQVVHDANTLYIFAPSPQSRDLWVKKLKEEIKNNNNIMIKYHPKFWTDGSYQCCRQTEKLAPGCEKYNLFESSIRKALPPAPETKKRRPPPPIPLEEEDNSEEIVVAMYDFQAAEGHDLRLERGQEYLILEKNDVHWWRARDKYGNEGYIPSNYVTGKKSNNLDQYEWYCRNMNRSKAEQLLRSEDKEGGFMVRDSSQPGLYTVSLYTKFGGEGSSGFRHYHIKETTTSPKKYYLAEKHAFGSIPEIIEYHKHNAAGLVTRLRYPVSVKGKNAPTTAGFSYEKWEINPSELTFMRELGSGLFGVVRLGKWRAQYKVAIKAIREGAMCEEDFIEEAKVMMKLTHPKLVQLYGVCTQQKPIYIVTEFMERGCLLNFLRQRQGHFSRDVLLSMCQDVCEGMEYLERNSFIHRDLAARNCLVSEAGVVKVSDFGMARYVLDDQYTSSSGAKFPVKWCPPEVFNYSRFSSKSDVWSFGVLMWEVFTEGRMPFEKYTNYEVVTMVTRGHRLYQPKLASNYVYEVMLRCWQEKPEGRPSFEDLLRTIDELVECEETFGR
T33 sequence (Q9BXA7 whole entry): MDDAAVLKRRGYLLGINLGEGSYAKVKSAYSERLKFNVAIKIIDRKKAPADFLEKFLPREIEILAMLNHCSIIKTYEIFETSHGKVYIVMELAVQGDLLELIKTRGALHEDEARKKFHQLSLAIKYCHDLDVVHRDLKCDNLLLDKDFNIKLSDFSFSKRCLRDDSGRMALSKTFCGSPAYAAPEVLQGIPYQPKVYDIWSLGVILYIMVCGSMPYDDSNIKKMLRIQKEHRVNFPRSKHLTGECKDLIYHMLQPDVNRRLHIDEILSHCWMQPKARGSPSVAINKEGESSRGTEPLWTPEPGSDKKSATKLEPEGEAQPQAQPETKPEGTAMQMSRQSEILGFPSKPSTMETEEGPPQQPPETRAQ
T22 sequence (P09619 33-1106): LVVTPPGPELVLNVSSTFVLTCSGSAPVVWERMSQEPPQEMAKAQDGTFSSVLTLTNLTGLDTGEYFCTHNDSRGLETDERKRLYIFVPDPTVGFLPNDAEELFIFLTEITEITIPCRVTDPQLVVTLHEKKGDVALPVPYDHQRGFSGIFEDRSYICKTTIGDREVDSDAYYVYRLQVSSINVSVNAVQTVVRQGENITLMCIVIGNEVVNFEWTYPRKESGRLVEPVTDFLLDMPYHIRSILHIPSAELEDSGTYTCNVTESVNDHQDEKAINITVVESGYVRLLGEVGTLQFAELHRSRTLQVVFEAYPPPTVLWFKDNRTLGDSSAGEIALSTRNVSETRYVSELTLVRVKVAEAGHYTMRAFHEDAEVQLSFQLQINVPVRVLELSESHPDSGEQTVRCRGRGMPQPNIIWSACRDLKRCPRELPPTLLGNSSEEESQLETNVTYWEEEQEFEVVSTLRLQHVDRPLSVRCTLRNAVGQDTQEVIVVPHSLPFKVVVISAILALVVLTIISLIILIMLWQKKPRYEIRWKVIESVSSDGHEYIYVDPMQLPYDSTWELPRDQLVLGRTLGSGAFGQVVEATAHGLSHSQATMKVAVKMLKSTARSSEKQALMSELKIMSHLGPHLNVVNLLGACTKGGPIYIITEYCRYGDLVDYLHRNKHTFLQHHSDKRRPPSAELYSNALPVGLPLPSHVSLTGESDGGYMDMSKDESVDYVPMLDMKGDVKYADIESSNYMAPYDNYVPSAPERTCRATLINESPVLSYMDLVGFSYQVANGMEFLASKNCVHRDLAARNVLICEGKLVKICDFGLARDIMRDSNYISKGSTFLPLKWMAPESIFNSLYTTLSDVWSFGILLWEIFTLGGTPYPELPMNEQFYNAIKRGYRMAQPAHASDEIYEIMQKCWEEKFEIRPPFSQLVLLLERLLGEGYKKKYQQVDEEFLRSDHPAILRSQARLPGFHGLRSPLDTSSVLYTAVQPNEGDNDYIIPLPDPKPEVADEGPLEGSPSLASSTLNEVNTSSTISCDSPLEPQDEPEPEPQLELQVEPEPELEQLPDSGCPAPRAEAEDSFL

Compound `CCCCN1CCN(C(=N)c2cccc(NC(=O)Nc3ccc(S(=O)(=O)NCc4ccc(S(N)(=O)=O)cc4)cc3)c2)CC1` [SC81458, 4-(3-(3-((4-butylpiperazin-1-yl)(imino)methyl)phenyl)ureido)-N-(4-sulfamoylbenzyl) benzenesulfonamide] has a remaining binding at 10 µM (ABL1(T315I)) of 100%, a remaining binding at 10 µM (BRSK2) of 100% and a remaining binding at 10 µM (CAMK2a) of 100%. For the same compound, the remaining binding at 10 µM (CAMK2g) was 100%, the remaining binding at 10 µM (CAMK4) was 51% and the remaining binding at 10 µM (CDK11) was 91%. For the same compound, the remaining binding at 10 µM (CHEK1) was 98%, the remaining binding at 10 µM (CIT) was 94% and the remaining binding at 10 µM (DRAK2) was 88%. It also gave a remaining binding at 10 µM [1] of 86%, a remaining binding at 10 µM [2] of 84% and a remaining binding at 10 µM (FLT3) of 100%. It also gave a remaining binding at 10 µM (HCK) of 100%, a remaining binding at 10 µM (HIPK1) of 100% and a remaining binding at 10 µM (ITK) of 86%. It also gave a remaining binding at 10 µM (KIT(L576P)) of 66%, a remaining binding at 10 µM (MAP3K4) of 100% and a remaining binding at 10 µM (MET) of 78%. It also gave a remaining binding at 10 µM (MLK3) of 100%, a remaining binding at 10 µM (MYLK) of 95% and a remaining binding at 10 µM (PAK4) of 100%. It also gave a remaining binding at 10 µM (PDGFRb) of 61%, a remaining binding at 10 µM (PIK3CA(M1043I)) of 100% and a remaining binding at 10 µM (PKAC-beta) of 78%. For the same compound, the remaining binding at 10 µM (PRKD2) was 97%, the remaining binding at 10 µM (PRKG2) was 80% and the remaining binding at 10 µM (PYK2) was 98%. For the same compound, the remaining binding at 10 µM [3] was 92%, the remaining binding at 10 µM (SLK) was 100% and the remaining binding at 10 µM (TBK1) was 100%. It also gave a remaining binding at 10 µM (TEC) of 90%, a remaining binding at 10 µM (TGFBR2) of 80% and a remaining binding at 10 µM (TSSK1B) of 97%.
